From US4985416A, “Platinum complexes of azodiazonium dyes as anti-tumor agents” (priority 1989, dated 1991)
Like-named read-outs stand apart in the source and are kept apart here.

Columns and labels:
Lewis Lung = assay: Tumor growth delay in vivo, Lewis Lung solid tumor; design: species or system mice (C57BL/6J); conditions: day 7, to reach 500 mm^3
Protocol: (§1) Anti-tumor activity of the complex prepared as described above was determined in vivo in mice by comparative tests against Fast Black dye alone and against Cis-diamminedichloroplatinum (CDDP) using the following procedure Two different solid tumor cell lines were employed, Lewis Lung and FSaII, 2×10^6 tumor cells being implanted i.m. into the legs of male C57BL/6J and C3H/He mice 8 to 10 weeks of age, respectively. The drugs were administered i.p. on day 7 after tumor implantation (when tumors were about 100 mm^3 in volume), in solution (0.5%) in 0.9% phosphate-buffered saline as carrier. Tumor growth delay is reported in Table I below as the difference in number of days for the treated tumors to reach 500 mm^3 in volume and the number of days required for untreated control tumors to reach the same volume (n=14 in each group). Tumor volume was calculated as a hemiellipsoid. In the control animals, tumors reached the specified volume in 12-14 days.

FSaII = assay: Tumor growth delay in vivo, FSaII solid tumor; design: species or system mice (C3H/He); conditions: day 7, to reach 500 mm^3
Protocol: as §1

Lewis Lung carcinoma = assay: Anti-metastatic activity: lung metastases from Lewis Lung carcinoma; assay type: in vivo, mice; conditions: day 7, lungs day 20, control 14
Protocol: as §1
Anti-metastatic activity was determined by implanting Lewis Lung carcinoma cells in the legs of mice as described above, administering drugs in the doses indicated in Table II below, i.p. on day 7 after implantation and removing the lungs on day 20 followed by counting metastases. Control mice received no drug (n=14 in each group).

FSaII fibrosarcoma cells [1] = assay type: in vivo, mice; conditions: 300 mg/kg i.p.
Protocol: Fifteen minutes later radiation was delivered locally to the tumor bearing limb as a single dose of 10, 20, or 30 gray as indicated in the table. No anesthetic was used. The growth of each tumor was measured thrice weekly until it reached a volume of 500 mm^3. […] The delay is reported in terms of the mean number of additional days beyond the control required for the tumors in each group to reach the specified volume.

FSaII fibrosarcoma cells [2] = assay: Enhancement of killing effect of heat treatment (hyperthermia) in vivo: growth delay; design: species or system mice
Protocol: FSaII fibrosarcoma cells (2×10^6 FSaII cells) were implanted in the legs of mice: the drug was administered i.p. when the tumor had grown to approximately 50 mm^3 in volume, using 0.9% phosphate buffered saline as carrier, as described above in the doses shown in Table 3 below. Fifteen minutes later radiation was delivered locally to the tumor bearing limb as a single dose of 10, 20, or 30 gray as indicated in the table. No anesthetic was used. The growth of each tumor was measured thrice weekly until it reached a volume of 500 mm^3. Each treatment group had 7 animals and the procedure was repeated 3 times. Tumor volume was calculated as a hemiellipsoid, and in the untreated control animals, tumors reached the specified volume in 14.0 days. The delay is reported in terms of the mean number of additional days beyond the control required for the tumors in each group to reach the specified volume. The results were as follows:
The complex was also found to be effective in enhancing the killing effect of heat treatment (hyperthermia) in vivo. The procedure described in the preceding paragraph was carried out except that there was substituted for the single radiation dose a heat treatment by immersion of the tumor-bearing limb in a water bath at 44° C. for 30 minutes to raise the tumor temperature to 43° C. The means number of days delay (n=14) was as follows: […]

carcinoma cells = conditions: in words; Bernal et al.; cited from earlier work
EMT6 cells = assay: Entry of platinum into EMT6 cells; assay type: cell-based; conditions: in words

SMILES: COc1cc([N+]#N)c(OC)cc1N=Nc1ccc([N+](=O)[O-])cc1 [Fast Black]
- Mean No. Days Delay (Lewis Lung) (Lewis Lung; 250 mg/kg i.p.): 2.0 days
- Mean No. Days Delay (FSaII) (FSaII; 250 mg/kg i.p.): 2.7 days
- Mean No. of Metastases per Animal (Lewis Lung carcinoma; 50 mg/kg i.p.): 13.3 Metastases per Animal
- Mean No. of Metastases per Animal (Lewis Lung carcinoma; 100 mg/kg i.p.): 12.3 Metastases per Animal
- Mean No. of Metastases per Animal (Lewis Lung carcinoma; 250 mg/kg i.p.): 11.0 Metastases per Animal
- Mean No. Days Delay (FSaII fibrosarcoma cells [1]; 0 Gray): 3.0 days
- Mean No. Days Delay (FSaII fibrosarcoma cells [1]; 10 Gray 15 min later, radiation alone 1.8): 7.0 days
- Mean No. Days Delay (FSaII fibrosarcoma cells [1]; 20 Gray 15 min later, radiation alone 6.3): 12.6 days
- Mean No. Days Delay (FSaII fibrosarcoma cells [1]; 30 Gray 15 min later, radiation alone 8.8): 16.2 days
- Mean No. Days Delay (FSaII fibrosarcoma cells [2]; 300 mg/kg, heat 30 min at 43° C., heat alone 1.4): 4.4 days
- Mean No. Days Delay (FSaII fibrosarcoma cells [2]; 300 mg/kg, no heat): 2.7 days

SMILES: COC(=O)c1ccccc1-c1c2ccc(=N)cc-2oc2cc(N)ccc12 [Rhodamine 123]
- selective toxicity toward carcinoma cells (carcinoma cells): selectively toxic toward carcinoma cells

SMILES: N.N.[Cl][Pt][Cl] [CDDP, Cis-diamminedichloroplatinum (II)]
- Mean No. Days Delay (Lewis Lung) (Lewis Lung; 5 mg/kg i.p.): < 1 days
- Mean No. Days Delay (Lewis Lung) (Lewis Lung; 10 mg/kg i.p.): < 1 days
- Mean No. Days Delay (FSaII) (FSaII; 5 mg/kg i.p.): 4.4 days
- Mean No. Days Delay (FSaII) (FSaII; 10 mg/kg i.p.): 8.0 days
- Mean No. of Metastases per Animal (Lewis Lung carcinoma; 10 mg/kg i.p.): 10.7 Metastases per Animal
- Mean No. Days Delay (FSaII fibrosarcoma cells [2]; 5 mg/kg, heat 30 min at 43° C., heat alone 1.4): 5.9 days
- Mean No. Days Delay (FSaII fibrosarcoma cells [2]; 5 mg/kg, no heat): 4.4 days

SMILES: [Cl][Pt-2]([Cl])([Cl])[Cl].[K+].[K+] [potassium tetracloroplatinate, potassium tetrachloroplatinate]
- entry of platinum into the cells (EMT6 cells): only very poor entry of platinum into the cells
